Assay results from patent US7312322B1, “Genetic sequences encoding steroid and juvenile hormone receptor polypeptides and insecticidal modalities therefor” (priority 1998, dated 2007).

How the values were obtained:
[1] = biological target: T1, linker and ligand-binding regions of the L. cuprina EcR polypeptide and partner protein (USP polypeptide) (Lucilia cuprina, UniProt O18531); experiment: [3H]ponasterone A binding assay in Sf9 and Sf21 cells infected by recombinant baculovirus (modified method of Yund et al); conditions: compared to the ecdysone holoreceptor in L. cuprina embryos; no specific binding with control virus (FIG. 3)
T1 construct: made in house; host or cells: recombinant baculovirus in insect Sf9 and Sf21 cells (extracts)
T1 sequence (O18531 366-757): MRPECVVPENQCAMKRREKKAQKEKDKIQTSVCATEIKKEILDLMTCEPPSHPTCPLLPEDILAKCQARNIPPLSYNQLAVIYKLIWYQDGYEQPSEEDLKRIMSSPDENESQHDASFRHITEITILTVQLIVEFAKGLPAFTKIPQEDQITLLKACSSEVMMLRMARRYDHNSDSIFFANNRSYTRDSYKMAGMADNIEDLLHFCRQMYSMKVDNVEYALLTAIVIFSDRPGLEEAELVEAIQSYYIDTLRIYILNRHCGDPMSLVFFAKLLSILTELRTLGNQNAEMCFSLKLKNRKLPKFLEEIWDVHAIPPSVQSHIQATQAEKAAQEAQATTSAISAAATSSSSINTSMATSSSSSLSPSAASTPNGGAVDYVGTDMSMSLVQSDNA
From the text: Control cells contained baculovirus expressing β-galactosidase and CAT only.
The segment of pLcEcR.USP.DUAL which encodes the tagged linker and ligand-binding regions of the EcR polypeptide and partner protein (USP polypeptide) sequences, placed operably under the control of polyhedrin and p10 promoters, respectively, was recombined into a baculovirus genome, by employing the Tn7 transposition system (Luckow et al, (1993). The polypeptide products were then co-expressed in insect Sf21 and Sf9 cells, where they associated into a functional complex.

[2] = system: in vitro-translated complex of the M. persicae EcR and USP polypeptides; experiment: Tritiated ponasterone A filter binding assay with in vitro-translated polypeptides; parameters: species or system Myzus persicae; conditions: tritiated ponasterone A 2.2 nM, 90 min, room temperature; complex versus USP or EcR polypeptide alone (FIG. 4)
Method: In vitro-translated Myzus persicae EcR (MpEcR) polypeptide and an in vitro-translated M. persicae USP (MpUSP) polypeptide were produced labelled with [^35S]Methionine, using the Promega TNT-Coupled Reticulocyte Lysate System. Each batch of lysate contained 100-200 mg/ml of endogenous proteins (using BSA as a standard). The products were analysed by SDS-PAGE and radioautography. The results confirmed that the cloned cDNAs encode proteins of the sizes predicted from the length of putative open reading frames of the cDNAs present in plasmids pMpEcR and pMPUSP. The yields of EcR and USP were similar as assessed by SDS-PAGE.
In functional assays, DNA plasmids pMpEcR (AGAL Accession No. NM99/04567; […]) or pMpUSP (AGAL Accession No. NM99/04568; […]), which have been constructed using the vector pBK-CMV, and […] of appropriate TNT RNA Polymerase were added to […] of reaction mix which contained TNT Lysate, TNT Reaction Buffer, amino acid mixture, Rnasin Ribonuclease Inhibitor and nuclease-free water in volumes specified in the manufactureFS protocol. […]
After thawing the translation products, […] aliquots of the reaction mixture containing M. persicae EcR and USP polypeptides were combined to promote formation of the EcR/USP complex. […] The receptor bound ligand was quantified using a TriCarb 2100TR scintillation counter.

CC(C)CC[C@@H](O)[C@](C)(O)[C@H]1CC[C@@]2(O)C3=CC(=O)[C@@H]4C[C@@H](O)[C@@H](O)C[C@]4(C)[C@H]3CC[C@]12C [PNA, ponasterone A]
binding of labelled ligand in cells infected by the recombinant baculovirus [1]: highly-significant increase in the binding | amount of ligand bound to EcR/USP complex [2]: significantly higher amounts
